From ChEMBL document CHEMBL1149525, “Synthesis and evaluation of anilinohexafluoroisopropanols as activators/modulators of LXRalpha and beta” (Bioorg Med Chem Lett, 2006)

Experiments:
[1] = target: T1, Oxysterols receptor LXR-alpha (Homo sapiens, UniProt Q13133)
T1 sequence (Q13133 whole entry): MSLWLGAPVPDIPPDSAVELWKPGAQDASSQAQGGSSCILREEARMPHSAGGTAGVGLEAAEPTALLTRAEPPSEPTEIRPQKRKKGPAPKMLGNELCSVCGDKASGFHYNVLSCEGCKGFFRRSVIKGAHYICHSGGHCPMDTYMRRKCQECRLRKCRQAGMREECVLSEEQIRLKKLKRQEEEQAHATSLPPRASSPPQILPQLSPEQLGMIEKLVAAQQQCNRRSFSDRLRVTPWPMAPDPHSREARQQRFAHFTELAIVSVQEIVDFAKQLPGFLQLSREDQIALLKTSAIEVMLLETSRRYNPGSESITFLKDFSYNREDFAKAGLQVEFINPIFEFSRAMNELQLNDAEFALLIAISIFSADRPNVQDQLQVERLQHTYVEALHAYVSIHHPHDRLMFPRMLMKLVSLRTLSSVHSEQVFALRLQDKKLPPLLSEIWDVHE

[2] = target: T1, Oxysterols receptor LXR-alpha; remark: listed apart in the source
Mus musculus [3] = experiment: Decrease in plasma triglyceride level in C57BL/6J mouse after 5 days at 10 mg/kg/day relative to control; assay type: functional; set-up: scale not given: the % may be the effect or the level left
Mus musculus [4] = experiment: Increase in plasma HDL-C level in C57BL/6J mouse after 5 days at 10 mg/kg/day relative to control; assay type: functional
Mus musculus [5] = experiment: Increase in liver triglyceride level in C57BL/6J mouse after 5 days at 10 mg/kg/day relative to control; assay type: functional
[6] = Plasma concentration in C57BL/6J mouse after 5 days at 10 mg/kg/day; assay type: ADME, organism-based
[7] = Liver concentration in C57BL/6J mouse after 5 days at 10 mg/kg/day; assay type: ADME, organism-based; conditions: read-out: Drug uptake
[8] = target: T2, Oxysterols receptor LXR-beta (Homo sapiens, UniProt P55055)
T2 sequence (P55055 whole entry): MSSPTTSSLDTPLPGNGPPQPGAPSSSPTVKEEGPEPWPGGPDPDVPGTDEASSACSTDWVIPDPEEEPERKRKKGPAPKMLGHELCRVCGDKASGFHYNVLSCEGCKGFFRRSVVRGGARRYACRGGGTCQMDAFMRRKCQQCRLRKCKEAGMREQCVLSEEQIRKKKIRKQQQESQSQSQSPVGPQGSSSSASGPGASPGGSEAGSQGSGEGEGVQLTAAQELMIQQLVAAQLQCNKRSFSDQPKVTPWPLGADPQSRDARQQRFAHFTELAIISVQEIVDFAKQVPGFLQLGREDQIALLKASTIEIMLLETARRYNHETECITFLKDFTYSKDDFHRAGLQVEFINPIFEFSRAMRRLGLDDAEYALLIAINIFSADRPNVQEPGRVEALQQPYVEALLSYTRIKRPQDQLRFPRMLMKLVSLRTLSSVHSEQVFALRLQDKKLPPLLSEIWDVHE

[9] = target: T2, Oxysterols receptor LXR-beta; remark: listed apart in the source
[10] = Liver concentration in C57BL/6J mouse after 5 days at 100 mg/kg/day; assay type: ADME, organism-based; conditions: read-out: Drug uptake
[11] = Plasma concentration in C57BL/6J mouse after 5 days at 100 mg/kg/day; assay type: ADME, organism-based
Mus musculus [12] = experiment: Increase in liver triglyceride level in C57BL/6J mouse after 5 days at 100 mg/kg/day relative to control; assay type: functional
Mus musculus [13] = experiment: Increase in plasma HDL-C level in C57BL/6J mouse after 5 days at 100 mg/kg/day relative to control; assay type: functional
Mus musculus [14] = experiment: Increase in plasma triglyceride level in C57BL/6J mouse after 5 days at 100 mg/kg/day relative to control; assay type: functional
Mus musculus [15] = experiment: Decrease in plasma triglyceride level in C57BL/6J mouse after 5 days at 100 mg/kg/day relative to control; assay type: functional; set-up: scale not given: the % may be the effect or the level left

Row | SMILES | IC50 [1] | EC50 [2] | other results
1 | CCN(Cc1ccncc1)c1ccc(C(O)(C(F)(F)F)C(F)(F)F)cc1 | 1700 nM | 2100 nM | –
2 | CCN(Cc1ccccn1)c1ccc(C(O)(C(F)(F)F)C(F)(F)F)cc1 | 1500 nM | 700 nM | –
3 | CCN(Cc1cccnc1)c1ccc(C(O)(C(F)(F)F)C(F)(F)F)cc1 | 2700 nM | 4300 nM | –
4 | CCN(Cc1cscn1)c1ccc(C(O)(C(F)(F)F)C(F)(F)F)cc1 | 600 nM | 3300 nM | –
5 | CCN(c1ccc(C(O)(C(F)(F)F)C(F)(F)F)cc1)C(COCCO)c1ccccc1 (racemic) | 12000 nM | > 40000 nM | –
6 | CCN(c1ccc(C(O)(C(F)(F)F)C(F)(F)F)cc1)C(C(=O)OC)c1ccccc1 (racemic) | 700 nM | 2300 nM | –
7 | CCN(c1ccc(C(O)(C(F)(F)F)C(F)(F)F)cc1)C(COCC(=O)N(C)C)c1ccccc1 (racemic) | 900 nM | 800 nM | –
8 | CCN(c1ccc(C(O)(C(F)(F)F)C(F)(F)F)cc1)C(C(=O)NC)c1ccccc1 (racemic) | 11200 nM | 10900 nM | –
9 | CCN(c1ccc(C(O)(C(F)(F)F)C(F)(F)F)cc1)C(C(=O)O)c1ccccc1 (racemic) | 5200 nM | 9400 nM | –
10 | CCN(c1ccc(C(O)(C(F)(F)F)C(F)(F)F)cc1)C(COCC(=O)O)c1ccccc1 (racemic) | 61000 nM | 10000 nM | –
11 | CCN(c1ccc(C(O)(C(F)(F)F)C(F)(F)F)cc1)C(COC)c1ccccc1 (racemic) | 400 nM | 900 nM | –
12 | CCN(c1ccc(C(O)(C(F)(F)F)C(F)(F)F)cc1)C(C(=O)N(C)C)c1ccccc1 (racemic) | 13800 nM | 9300 nM | –
13 | CCN(c1ccc(C(O)(C(F)(F)F)C(F)(F)F)cc1Cl)C(COc1ccc(CC(=O)OC)cc1)c1ccccc1 (racemic) | 200 nM | 1100 nM | –
14 | CCN(c1ccc(C(O)(C(F)(F)F)C(F)(F)F)cc1)C(COCC(=O)OC)c1ccccc1 (racemic) | 600 nM | 2200 nM | –
15 | CCN(c1ccc(C(O)(C(F)(F)F)C(F)(F)F)cc1)C(C(=O)N1CCOCC1)c1ccccc1 (racemic) | 5400 nM | 8500 nM | –
16 | CCN(c1ccc(C(O)(C(F)(F)F)C(F)(F)F)cc1)C(COCC(=O)NC)c1ccccc1 (racemic) | 18000 nM | > 40000 nM | –

Second part, led by results:

Row | IC50 [1] | EC50 [2] | SMILES | other results
17 | 70 nM | 900 nM | OC(c1ccc(N(Cc2ccccc2)CC(F)(F)F)cc1)(C(F)(F)F)C(F)(F)F | –
18 | 6 nM | 200 nM | CCN(Cc1nc(-c2cccc(C(F)(F)F)c2)oc1C)c1ccc(C(O)(C(F)(F)F)C(F)(F)F)cc1 | Activity (Mus musculus [3]): 12%; Activity (Mus musculus [4]): 35%; Activity (Mus musculus [5]): 70%; concentration at 120 h [6]: 700 ng/mL; concentration at 120 h [7]: 8200 ng/g; IC50 [8]: 3 nM; EC50 [9]: 60 nM
19 | 20 nM | 500 nM | CCN(Cc1cscn1)c1ccc(C(O)(C(F)(F)F)C(F)(F)F)cc1Cl | –
20 | 13 nM | 700 nM | Cc1oc(-c2cccc(C(F)(F)F)c2)nc1CN(CC(F)(F)F)c1ccc(C(O)(C(F)(F)F)C(F)(F)F)cc1 | –
21 | 2 nM | 300 nM | CCN(Cc1nc(-c2cccc(Cl)c2)oc1C)c1ccc(C(O)(C(F)(F)F)C(F)(F)F)cc1Cl | –
22 | 120 nM | 1000 nM | CCN(CCc1ccccc1)c1ccc(C(O)(C(F)(F)F)C(F)(F)F)cc1 | –
23 | 3 nM | 200 nM | CCN(Cc1ccccc1)c1ccc(C(O)(C(F)(F)F)C(F)(F)F)cc1Cl | concentration at 120 h [10]: 13000 ng/g; concentration at 120 h [11]: 3400 ng/mL; Activity (Mus musculus [12]): 28%; Activity (Mus musculus [13]): 23%; IC50 [8]: 3 nM; EC50 [9]: 80 nM; Activity (Mus musculus [14]): 7%
24 | 6 nM | 100 nM | CCN(Cc1nc(-c2cccc(C(F)(F)F)c2)oc1C)c1ccc(C(O)(C(F)(F)F)C(F)(F)F)cc1Cl | –
25 | 50 nM | 1100 nM | CCN(Cc1ccccc1)c1ccc(C(O)(C(F)(F)F)C(F)(F)F)cc1 | –
26 | 1 nM | 100 nM | OC(c1ccc(N(Cc2ccccc2)CC(F)(F)F)c(Cl)c1)(C(F)(F)F)C(F)(F)F | –
27 | 6 nM | 800 nM | CCN(CCc1ccccc1)c1ccc(C(O)(C(F)(F)F)C(F)(F)F)cc1Cl | –
28 | 30 nM | 1000 nM | Cc1oc(-c2cccc(Cl)c2)nc1CN(CC(F)(F)F)c1ccc(C(O)(C(F)(F)F)C(F)(F)F)cc1 | –
29 | 100 nM | 5500 nM | CCN(c1ccc(C(O)(C(F)(F)F)C(F)(F)F)cc1Cl)C(COc1ccc(CC(=O)O)cc1)c1ccccc1 (racemic) | –
30 | 100 nM | 1400 nM | CCN(c1ccc(C(O)(C(F)(F)F)C(F)(F)F)cc1Cl)C(COc1ccc(CCC(=O)OC)cc1)c1ccccc1 (racemic) | –
31 | 200 nM | 400 nM | CCN(c1ccc(C(O)(C(F)(F)F)C(F)(F)F)cc1)C(C)(C(=O)N(C)C)c1ccccc1 (racemic) | –
32 | 60 nM | 700 nM | CCN(c1ccc(C(O)(C(F)(F)F)C(F)(F)F)cc1Cl)C(COc1ccc(C(=O)OC)cc1)c1ccccc1 (racemic) | –
33 | 60 nM | 500 nM | CCN(c1ccc(C(O)(C(F)(F)F)C(F)(F)F)cc1Cl)C(CC)(C(=O)OC)c1ccccc1 (racemic) | –
34 | 200 nM | 1900 nM | CCN(c1ccc(C(O)(C(F)(F)F)C(F)(F)F)cc1)C(COCc1ccccc1)c1ccccc1 (racemic) | –
35 | 50 nM | 100 nM | CCN(c1ccc(C(O)(C(F)(F)F)C(F)(F)F)cc1)C(C)(C(=O)OC)c1ccccc1 (racemic) | concentration at 120 h [10]: 6300 ng/g; concentration at 120 h [11]: 2300 ng/mL; Activity (Mus musculus [12]): 520%; Activity (Mus musculus [13]): 12%; Activity (Mus musculus [15]): 11%; IC50 [8]: 8 nM; EC50 [9]: 30 nM
36 | 50 nM | 300 nM | CCN(c1ccc(C(O)(C(F)(F)F)C(F)(F)F)cc1)C(CC)(C(=O)OC)c1ccccc1 (racemic) | –
37 | 60 nM | 4500 nM | CCN(c1ccc(C(O)(C(F)(F)F)C(F)(F)F)cc1Cl)C(COc1ccc(CCC(=O)O)cc1)c1ccccc1 (racemic) | –
38 | 60 nM | 90 nM | COC(=O)C1(c2ccccc2)CCCCN1c1ccc(C(O)(C(F)(F)F)C(F)(F)F)cc1 (racemic) | –
39 | 50 nM | 200 nM | COC(=O)C1(c2ccccc2)CCCN1c1ccc(C(O)(C(F)(F)F)C(F)(F)F)cc1 (racemic) | –
40 | 100 nM | 3700 nM | CCN(c1ccc(C(O)(C(F)(F)F)C(F)(F)F)cc1Cl)C(COc1ccc(C(=O)O)cc1)c1ccccc1 (racemic) | –
